Source: US12350270B2, “Antimalarial agents” (Merck Sharp & Dohme LLC, priority 2019, dated 2025)

Test system: parasites (ring stage, in human red blood cell culture)
Assay: Parasite LDH growth assay (antiparasite potency, Parasite Assay)
Assay type: cell-based, Plasmodium falciparum
Conditions: 0.7% rings, 2% haematocrit, 72 hours at 37° C., LDH readout of parasite growth
In short: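 Growth was read by an LDH assay after a freeze–thaw cycle (−80 °C overnight, 4 h thaw at RT). Before that, parasites grew with compound for 72 h at 37 °C under gassed, humidified conditions. The input was a ring-stage culture adjusted to 0.7% parasitemia and 2% haematocrit in serum (5%)/albumax (0.5%)-supplemented RPMI-Hepes.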

Question: For `CCC1(CC)CC(=O)N([C@@H]2CCS(=O)(=O)c3ccc(C(=O)N[C@H]4CC(C)(C)Oc5ccccc54)cc32)C(=N)N1` [Example 289, (4R)-4-(4,4-diethyl-2-imino-6-oxo-hexahydropyrimidin-1-yl)-N-[(4S)-2,2-dimethylchroman-4-yl]-1,1-dioxo-3,4-dihydro-2H-thiochromane-6-carboxamide], which EC50 is on record?
Answer: Its EC50 is 0.6 nM.

Same assay, conditions: Plasmodium falciparum, Erythrocyte, 72 h, 0.7% rings, 2% haematocrit, 72 hours at 37° C., LDH readout of parasite growth

Question: How did the EC50 turn out when `CCC1(CC)CC(=O)N([C@H]2c3cc(C(=O)N[C@@H]4c5ccccc5OC[C@@]4(C)O)ccc3O[C@]2(C)COC)C(=N)N1` [Example 279, (2S,3S)-3-(4,4-diethyl-2-imino-6-oxo-hexahydropyrimidin-1-yl)-N-[(3S,4R)-3-hydroxy-3-methyl-chroman-4-yl]-2-(methoxymethyl)-2-methyl-3H-benzofuran-5-carboxamide] was run?
Answer: The EC50 was 31.4 nM.

Question: Which EC50 does the source give for `CCC1(CC)CC(=O)N([C@H]2c3cc(C(=O)N[C@@H]4c5ccccc5OC[C@@]4(C)O)ccc3O[C@@]2(C)COC)C(=N)N1` [Example 281, (2R,3S)-3-(4,4-diethyl-2-imino-6-oxo-hexahydropyrimidin-1-yl)-N-[(3S,4R)-3-hydroxy-3-methyl-chroman-4-yl]-2-(methoxymethyl)-2-methyl-3H-benzofuran-5-carboxamide] here?
Answer: Its EC50 is 1.1 nM.

Question: How did the EC50 turn out when `CCC1(CC)CC(=O)N([C@@H]2C[C@@H](COC)Oc3ccc(C(=O)N[C@@H]4c5ccccc5OC[C@@]4(C)O)cc32)C(=N)N1` [Example 283, (2S,4R)-4-(4,4-diethyl-2-imino-6-oxo-hexahydropyrimidin-1-yl)-N-[(3S,4R)-3-hydroxy-3-methyl-chroman-4-yl]-2-(methoxymethyl)chromane-6-carboxamide] was run?
Answer: Its EC50 is 2.6 nM.

Question: `CC[C@]1(C)CC(=O)N(C2c3cc(C(=O)N[C@@H]4c5ccccc5OC(C)(C)[C@H]4O)ccc3OCC2(C)OC)C(=N)N1` (stereo partly drawn) [Example 284, 4-[(4R)-4-ethyl-2-imino-4-methyl-6-oxo-hexahydropyrimidin-1-yl]-N-[(3S,4R)-3-hydroxy-2,2-dimethyl-chroman-4-yl]-3-methoxy-3-methyl-chromane-6-carboxamide] was tested. Which EC50 did it give?
Answer: Its EC50 is 8.5 nM.

Question: How did the EC50 turn out when `CCC1(CC)CC(=O)N(C2c3cc(C(=O)N[C@@H]4c5ccccc5C[C@H]4O)ccc3OC2(COC)COC)C(=N)N1` (stereo partly drawn) [Example 285, 3-(4,4-diethyl-2-imino-6-oxo-hexahydropyrimidin-1-yl)-N-[(1R,2R)-2-hydroxyindan-1-yl]-2,2-bis(methoxymethyl)-3H-benzofuran-5-carboxamide] was run?
Answer: Its EC50 is 35.5 nM.

Question: With `CCC1(CC)CC(=O)N([C@@H]2c3cc(C(=O)N[C@@H]4c5ccccc5OC[C@@]4(C)O)ccc3OC[C@@H]2COC)C(=N)N1` [Example 286, (3S,4S)-4-(4,4-diethyl-2-imino-6-oxo-hexahydropyrimidin-1-yl)-N-[(3S,4R)-3-hydroxy-3-methyl-chroman-4-yl]-3-(methoxymethyl)chromane-6-carboxamide] as the compound, how does the EC50 read?
Answer: Its EC50 is 240 nM.

Question: How did the EC50 turn out when `CCC1(CC)CC(=O)N([C@H]2c3cc(C(=O)N[C@@H]4c5ccccc5OC[C@@]4(C)O)ccc3OC[C@H]2COC)C(=N)N1` [Example 287, (3R,4R)-4-(4,4-diethyl-2-imino-6-oxo-hexahydropyrimidin-1-yl)-N-[(3S,4R)-3-hydroxy-3-methyl-chroman-4-yl]-3-(methoxymethyl)chromane-6-carboxamide] was run?
Answer: Its EC50 is 1.9 nM.

Question: Which EC50 does the source give for `CCC1(CC)CC(=O)N([C@H]2c3cc(C(=O)N[C@@H]4c5ccccc5OC[C@@]4(C)O)ccc3OC[C@@H]2COC)C(=N)N1` [Example 288, (3S,4R)-4-(4,4-diethyl-2-imino-6-oxo-hexahydropyrimidin-1-yl)-N-[(3S,4R)-3-hydroxy-3-methyl-chroman-4-yl]-3-(methoxymethyl)chromane-6-carboxamide] here?
Answer: The EC50 was 1.8 nM.

Question: Which EC50 does the source give for `CCC1(CC)CC(=O)N([C@H]2c3cc(C(=O)N[C@@H]4c5ccccc5C(F)(F)[C@H]4O)ccc3O[C@@]2(C)COC)C(=N)N1` [Example 290, (2R,3S)-3-(4,4-diethyl-2-imino-6-oxo-hexahydropyrimidin-1-yl)-N-[(1R,2S)-3,3-difluoro-2-hydroxy-indan-1-yl]-2-(methoxymethyl)-2-methyl-3H-benzofuran-5-carboxamide] here?
Answer: The EC50 was 0.3 nM.

Question: How did the EC50 turn out when `CCC1(CC)CC(=O)N(C2CC(C(=O)N(C)C)Oc3ccc(C(=O)N[C@@H]4c5ccccc5C[C@@]4(C)O)cc32)C(=N)N1` (stereo partly drawn) [Example 292, 4-(4,4-diethyl-2-imino-6-oxo-hexahydropyrimidin-1-yl)-N6-[(1R,2R)-2-hydroxy-2-methyl-indan-1-yl]-N2,N2-dimethyl-chromane-2,6-dicarboxamide] was run?
Answer: Its EC50 is 49.7 nM.

Question: For `CC1(C)CC(=O)N([C@@H]2CCS(=O)(=O)c3ccc(C(=O)N[C@H]4C[C@H](C(F)(F)F)Oc5ccccc54)cc32)C(=N)N1` [Example 293, (4R)-4-(2-imino-4,4-dimethyl-6-oxo-hexahydropyrimidin-1-yl)-1,1-dioxo-N-[(2R,4S)-2-(trifluoromethyl)chroman-4-yl]-3,4-dihydro-2H-thiochromene-6-carboxamide], which EC50 is on record?
Answer: The EC50 was 2.8 nM.

Question: How did the EC50 turn out when `CC1(C)CC(=O)N([C@H]2CCS(=O)(=O)c3ccc(C(=O)N[C@H]4C[C@H](C(F)(F)F)Oc5ccccc54)cc32)C(=N)N1` [Example 294, (4S)-4-(2-imino-4,4-dimethyl-6-oxo-hexahydropyrimidin-1-yl)-1,1-dioxo-N-[(2R,4S)-2-(trifluoromethyl)chroman-4-yl]-3,4-dihydro-2H-thiochromene-6-carboxamide] was run?
Answer: The EC50 was 259 nM.

Question: Which EC50 does the source give for `CCC1(CC)CC(=O)N([C@@H]2c3cc(C(=O)N[C@@H]4c5ccccc5OC(C)(C)[C@H]4O)ccc3OC[C@@]2(C)OC)C(=N)N1` [Example 295, (3S,4R)-4-(4,4-diethyl-2-imino-6-oxo-hexahydropyrimidin-1-yl)-N-[(3S,4R)-3-hydroxy-2,2-dimethyl-chroman-4-yl]-3-methoxy-3-methyl-chromane-6-carboxamide] here?
Answer: The EC50 was 100 nM.

Question: How did the EC50 turn out when `CCC1(CC)CC(=O)N([C@H]2c3cc(C(=O)N[C@@H]4c5ccccc5OC(C)(C)[C@H]4O)ccc3OC[C@]2(C)OC)C(=N)N1` [Example 296, (3R,4S)-4-(4,4-diethyl-2-imino-6-oxo-hexahydropyrimidin-1-yl)-N-[(3S,4R)-3-hydroxy-2,2-dimethyl-chroman-4-yl]-3-methoxy-3-methyl-chromane-6-carboxamide] was run?
Answer: Its EC50 is 0.3 nM.

Question: `CCC1(CC)CC(=O)N(C2c3cc(C(=O)N[C@@H]4c5ccccc5C[C@@]4(C)O)ccc3OC2(COC)COC)C(=N)N1` (stereo partly drawn) [Example 297, 3-(4,4-diethyl-2-imino-6-oxo-hexahydropyrimidin-1-yl)-N-[(1R,2R)-2-hydroxy-2-methyl-indan-1-yl]-2,2-bis(methoxymethyl)-3H-benzofuran-5-carboxamide] was tested. Which EC50 did it give?
Answer: The EC50 was 241 nM.

Question: Which EC50 does the source give for `CCC1(CC)CC(=O)N([C@H]2c3cc(C(=O)N[C@@H]4c5ccccc5OC(C)(C)[C@H]4O)ccc3OC[C@H]2COC)C(=N)N1` [Example 298, (3R,4R)-4-(4,4-diethyl-2-imino-6-oxotetrahydropyrimidin-1(2H)-yl)-N-((3S,4R)-3-hydroxy-2,2-dimethylchroman-4-yl)-3-(methoxymethyl)chromane-6-carboxamide] here?
Answer: The EC50 was 0.5 nM.

Question: For `CCC1(CC)CC(=O)N([C@H]2c3cc(C(=O)N[C@@H]4c5ccccc5OC(C)(C)[C@H]4O)ccc3OC[C@@H]2COC)C(=N)N1` [Example 299, (3S,4R)-4-(4,4-diethyl-2-imino-6-oxo-hexahydropyrimidin-l-yl)-N-[(3S,4R)-3-hydroxy-2,2-dimethyl-chroman-4-yl]-3-(methoxymethyl)chromane-6-carboxamide], which EC50 is on record?
Answer: The EC50 was 0.8 nM.

Question: For `CC[C@]1(C)CC(=O)N([C@@H]2C[C@@H](COC(F)F)Oc3ccc(C(=O)N[C@@H]4c5ccccc5OC[C@@]4(C)O)cc32)C(=N)N1` [Example 300, (2S,4R)-2-(difluoromethoxymethyl)-4-[(4R)-4-ethyl-2-imino-4-methyl-6-oxo-hexahydropyrimidin-1-yl]-N-[(3S,4R)-3-hydroxy-3-methyl-chroman-4-yl]chromane-6-carboxamide], which EC50 is on record?
Answer: The EC50 was 3.8 nM.

Question: Which EC50 does the source give for `CCC1(CC)CC(=O)N([C@H]2c3cc(C(=O)N[C@@H]4c5cc(C#N)ccc5OC[C@@]4(C)O)ccc3OC[C@H]2COC)C(=N)N1` [Example 301, (3R,4R)-N-[(3S,4R)-6-cyano-3-hydroxy-3-methyl-chroman-4-yl]-4-(4,4-diethyl-2-imino-6-oxo-hexahydropyrimidin-1-yl)-3-(methoxymethyl)chromane-6-carboxamide] here?
Answer: The EC50 was 1.8 nM.

Question: How did the EC50 turn out when `CCC1(CC)CC(=O)N(C2CC(C(=O)N(C)C)Oc3ccc(C(=O)N[C@H]4CC(C)(C)Oc5ccccc54)cc32)C(=N)N1` (stereo partly drawn) [Example 302, 4-(4,4-diethyl-2-imino-6-oxo-hexahydropyrimidin-1-yl)-N6-[(4S)-2,2-dimethylchroman-4-yl]-N2,N2-dimethyl-chromane-2,6-dicarboxamide] was run?
Answer: The EC50 was 1.7 nM.

Question: For `CCC1(CC)CC(=O)N(C2CC(C(=O)N(C)C)Oc3ccc(C(=O)N[C@@H]4c5ccccc5OC[C@@]4(C)O)cc32)C(=N)N1` (stereo partly drawn) [Example 303, 4-(4,4-diethyl-2-imino-6-oxo-hexahydropyrimidin-1-yl)-N6-[(3S,4R)-3-hydroxy-3-methyl-chroman-4-yl]-N2,N2-dimethyl-chromane-2,6-dicarboxamide], which EC50 is on record?
Answer: Its EC50 is 50.8 nM.

Question: With `CCC1(CC)CC(=O)N([C@H]2c3cc(C(=O)N[C@H]4CC(C)(C)Oc5ccccc54)ccc3OC2(COC)COC)C(=N)N1` [Example 304, (3S)-3-(4,4-diethyl-2-imino-6-oxo-hexahydropyrimidin-1-yl)-N-[(4S)-2,2-dimethylchroman-4-yl]-2,2-bis(methoxymethyl)-3H-benzofuran-5-carboxamide] as the compound, how does the EC50 read?
Answer: The EC50 was 5.6 nM.

Question: `CCC1(CC)CC(=O)N(C2c3cc(C(=O)N[C@@H]4c5ccccc5OC[C@@]4(C)O)ccc3OC2(COC)COC)C(=N)N1` (stereo partly drawn) [Example 305, 3-(4,4-diethyl-2-imino-6-oxo-hexahydropyrimidin-l-yl)-N-[(3S,4R)-3-hydroxy-3-methyl-chroman-4-yl]-2,2-bis(methoxymethyl)-3H-benzofuran-5-carboxamide] was tested. Which EC50 did it give?
Answer: The EC50 was 75.8 nM.
